From patent publication US20260137697A1, “THIAZOLO[5,4-D]PYRIMIDINE COMPOUNDS, COMPOSITIONS COMPRISING THEM AND USES THEREOF” (University de Montreal, priority 2022, published 2026)

Columns and labels:
BRAF = target: T1, BRAF (Homo sapiens, UniProt P15056); experiment: BRAF kinase activity assay (ADP-Glo); format: biochemical; settings: Table 3; 10 μM ATP, kinase-dead MEK1 substrate
T1 construct: GST; purchased Millipore Sigma B4062-10UG
Method: (§1) Compound preparation: solid samples of each substance in 1dram vials were suspended in DMSO (Fisher Scientific) at a stock concentration of 20 mM. Stocks were kept at −20° C. and protected from light. If solubility of the compound at 20 mM appeared to be an issue, the initial concentration of the DMSO stock was changed to 10 mM or 5 mM.
(§2) In vitro enzymatic reactions were used for evaluating compounds intrinsic activity against BRAF, CRAF and ARAF. For BRAF and CRAF, 0.375 nM of purified GST-tagged kinases (cat. No. B4062-10UG and cat. No. R1656-10UG respectively from Millipore Sigma) were incubated with 75 nM of kinase-dead MEK1 substrate (cat. No. 40075; BPS Bioscience) in the presence of 10 μM of Ultrapure ATP (cat. No. V9102; Promega; part V915A) with and without the test compound in a buffer containing 50 mM HEPES pH 7.5, 10 mM MgCl2, 1 mM EDTA, 0.01% Brij-35 and 2 mM DTT. Separate reactions were performed with the MEK1 substrate and ATP as a blank control. ARAF kinase reactions were rigorously the same with the exception that kinase concentration was raised to 3.75 nM (cat. No. 1768-0000-1; Reaction Biology).
(§3) For compound treatment, 5 μL/well of test substance solution are placed in a 384-well proxyplate (Perkin Elmer) and mixed with 2× concentrated kinase reactions. The dilution series is selected so that nine concentrations cover a range from 100 nM to 0.01 nM. […] The final concentration of DMSO in the assay is set at 0.05%.
(§4) BRAF and CRAF kinase reactions were carried out for a total of 2 hours at 30° C. and then stopped by 1/2 dilution in ADP-Glo Reagent (cat. No. V9102; Promega; part V912C). Reactions were then incubated for 1 h at room temperature before addition of one volume of Kinase Detection Reagent (cat. No. V9102; Promega; part V917A). Plates were then equilibrated at room temperature for 30 minutes before detection of luminescence on a Synergy Neo2 plate reader (Biotek). The effect of each compound dilution on BRAF and CRAF kinase activity was expressed as % inhibition and calculated as follows. First, the internal 100% inhibition control (average of luminescence in kinase reactions comprising kinase dead MEK1 substrate alone) was subtracted from each data point. The average of DMSO (vehicle) controls (set as 0% inhibition) was established and used to calculate % inhibition:
(§5) IC50 values were obtained by plotting the kinase inhibition values and fitting the dose-activity curves using a log(agonist) versus response—variable slope (four parameters) function using either GraphPadPrism (V7.0) or Dotmatics Screening Ultra platform. Standards included in the ARAF kinase assay were Belvarafenib (MedChem Express cat. No. HY-109080; CAS No. 1446113-23-0), LXH254 (MedChem Express cat. No. HY-112089; CAS No. 1800398-38-2) and BGB283 (cat. No. HY-18957; CAS No. 1446090-79-4).

CRAF = target: T2, CRAF (Homo sapiens, UniProt P04049); experiment: CRAF kinase activity assay (ADP-Glo); format: biochemical; settings: Table 3; 10 μM ATP, kinase-dead MEK1 substrate
T2 construct: fused on or other part: GST tag (N-terminal according to the vendor's product)
T2 sequence (P04049 whole entry Y340E/Y341E, form open, the tested form may be a part): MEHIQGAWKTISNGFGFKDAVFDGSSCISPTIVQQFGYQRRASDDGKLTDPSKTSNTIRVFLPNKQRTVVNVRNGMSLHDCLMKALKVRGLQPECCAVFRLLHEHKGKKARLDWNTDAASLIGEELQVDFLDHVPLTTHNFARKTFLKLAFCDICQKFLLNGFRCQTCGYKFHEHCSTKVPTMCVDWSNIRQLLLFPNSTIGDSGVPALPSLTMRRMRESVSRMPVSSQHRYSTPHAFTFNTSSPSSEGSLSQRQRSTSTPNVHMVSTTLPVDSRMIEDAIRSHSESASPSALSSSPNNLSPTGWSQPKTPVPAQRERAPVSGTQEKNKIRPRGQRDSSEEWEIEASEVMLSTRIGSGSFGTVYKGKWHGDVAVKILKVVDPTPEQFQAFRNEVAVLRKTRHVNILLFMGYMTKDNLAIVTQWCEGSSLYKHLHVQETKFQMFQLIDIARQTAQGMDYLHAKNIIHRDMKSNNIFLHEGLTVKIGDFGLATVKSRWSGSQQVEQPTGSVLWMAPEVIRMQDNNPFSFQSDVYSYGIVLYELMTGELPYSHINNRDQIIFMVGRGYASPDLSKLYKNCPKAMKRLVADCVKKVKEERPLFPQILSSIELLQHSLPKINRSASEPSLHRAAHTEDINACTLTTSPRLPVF
Method: as §1, §2, §3, §4, §5

pERK, HCT116 cells = experiment: Phospho-ERK inhibition, AlphaLISA p-ERK 1/2, HCT-116; format: cell-based, human; settings: Table 3; for IC50: HCT116 cells (KRAS G13D), 1 h treatment; for HCT116 pERK (Ymin %): lowest % inhibition value of the pERK IC50 curve, above −20% = no paradoxical induction
Method: All cancer cell lines (A375, A101D, A2058, RKO, HT29 SK-MEL 30, IPC298, HepG2, HCT-116, Lovo, SW620, SW480, NCI-H358, NCI-H2122, Calu-6, NCIH2087, NCIH1755, NCIH1666 and Mewo) were obtained from ATCC and cultured in RPM1-1640 medium (Gibco) supplemented with 5% heat inactivated fetal bovine serum (FBS, Wisent) at 37° C. under 5% CO2. Cells were maintained in T175 flasks (Greiner). They were passaged by removing the culture medium, washing once in 10 mL of room temperature Phosphate Buffered Saline (PBS; Wisent) and incubating at 37° C. with 2 mL of 0.05% Trypsin (Thermo-Fisher). Trypsin was then inactivated by adding complete growth medium and the cells were then replated in a T175 culture dish at the appropriate dilution. All cell lines were routinely tested for mycoplasma contamination. Tissue type and mutational status of each cell line can be found in Table B.
(c) Measurement of Phospho-ERK Inhibition in Cultivated Human Cancer Cell Lines by the AlphaLISA® SureFire® Ultra™ p-ERK 1/2 (Thr2O2/Tyr204)
AlphaLISA® SureFire® Ultra™ p-ERK 1/2 (Thr202/Tyr204) analysis was conducted on cells plated in 100 μL of complete RPMI-1640 growth medium in 96-well flat-bottomed transparent dishes (Costar) at a density indicated in Table C. Cells were maintained overnight at 37° C. under 5% CO2 before treatment with compounds' dilution series for one hour. The cell density in cells/cm^2 corresponds to cell number divided by the area of one well of a 96-well plate (0.143 cm^2).
In a dilution series 100 μL/well of test substance dilution prepared in complete RPMI-1640 growth media was added to the cells. The dilution series is selected so that ten concentrations cover a range from 10 μM to 0.33 nM. If necessary, the initial concentration of 10 μM is increased to 100 μM or lowered to 1 μM (as in the case of A375 and H1666 cells, which are generally more sensitive to the compounds) and further dilution is carried out accordingly. The final concentration of DMSO in the assay is set at 0.5%.
After treatment, media was removed, and cells were lysed in 50 μL of 1× AlphaScreen Ultra Lysis Buffer (Perkin Elmer). The AlphaLISA® SureFire® Ultra™ p-ERK 1/2 (Thr202/Tyr204) (PerkinElmer) reactions were performed with 5 μL of cell lysate according to the manufacturer's specifications in 384-well proxyplates (Perkin Elmer) followed by overnight incubation of the reactions at room temperature in a humidified chamber. After completion of the reactions, the signals were recorded on an EnVision plate reader (Perkin Elmer) using built in AlphaLISA® settings.
The effect of each compound dilution on the pERK signal was expressed in % inhibition and calculated as follows. An internal 100% inhibition control (1 μM trametinib, cat. No. HY-10999; MedChem Express; CAS No. 871700-17-3) was included in each plate and used as a measure of pERK background. First, the value obtained for trametinib was subtracted from each data point. The average of DMSO (vehicle) controls (set as 0% inhibition) was established and used to calculate % inhibition:
The ability of each compound to inhibit pERK signal was expressed as an IC50 value obtained by plotting the inhibition values for each data point of a dilution series and fitting the obtained curves using a log(agonist) versus response—variable slope (four parameters) function using GraphPadPrism (V7.0) or Dotmatics Screening Ultra platform.
When present, paradoxical pERK induction is inferred from the negative % inhibition values observed in the pERK IC50 curves of a compound.

T1 sequence (P15056 whole entry): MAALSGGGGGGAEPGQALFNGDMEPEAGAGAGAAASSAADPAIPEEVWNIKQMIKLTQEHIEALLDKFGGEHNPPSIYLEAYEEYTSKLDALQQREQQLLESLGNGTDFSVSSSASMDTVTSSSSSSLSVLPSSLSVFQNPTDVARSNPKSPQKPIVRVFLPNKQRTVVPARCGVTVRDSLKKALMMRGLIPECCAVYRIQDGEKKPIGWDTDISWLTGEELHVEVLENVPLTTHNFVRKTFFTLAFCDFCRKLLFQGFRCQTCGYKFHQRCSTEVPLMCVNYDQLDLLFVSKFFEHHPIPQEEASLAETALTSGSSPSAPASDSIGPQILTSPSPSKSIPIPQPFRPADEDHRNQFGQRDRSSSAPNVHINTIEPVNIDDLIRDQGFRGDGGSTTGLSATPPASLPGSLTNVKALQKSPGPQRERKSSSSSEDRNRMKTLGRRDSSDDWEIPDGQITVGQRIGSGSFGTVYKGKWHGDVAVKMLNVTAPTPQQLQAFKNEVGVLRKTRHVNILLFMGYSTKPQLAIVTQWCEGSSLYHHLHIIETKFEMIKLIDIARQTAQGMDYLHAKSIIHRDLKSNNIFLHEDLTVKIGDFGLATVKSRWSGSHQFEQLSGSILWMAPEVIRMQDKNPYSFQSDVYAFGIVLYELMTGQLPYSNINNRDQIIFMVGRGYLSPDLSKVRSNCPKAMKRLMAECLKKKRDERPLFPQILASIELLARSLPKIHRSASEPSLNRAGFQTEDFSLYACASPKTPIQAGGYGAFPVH

Row | SMILES | IC50 (BRAF) [nM] | IC50 (CRAF) [nM] | IC50 (pERK, HCT116 cells) [nM] | IC50 (pERK, HCT116 cells; Homo sapiens, HCT-116) [nM] | HCT116 pERK (Ymin %) (pERK, HCT116 cells) [%]
1 | Cc1c(F)cccc1S(=O)(=O)Nc1ccc(F)c(Nc2ncnc3sc(-n4nc(C(=O)N5C6CCC5CN(C)C6)c5ccccc54)nc23)c1F [Example 42] | > 10 | 10 to 50 | 500 to 1000 | – | 2
2 | CN(Cc1cccnc1)C(=O)c1cn(-c2nc3c(Nc4c(F)ccc(NS(=O)(=O)c5cccc(Cl)c5Cl)c4F)ncnc3s2)c2ccccc12 [Example 46] | 1 to 10 | < 10 | < 500 | – | 1
3 | O=S(=O)(Nc1ccc(F)c(Nc2ncnc3sc(-n4cnc5cc(Cl)c(Cl)cc54)nc23)c1F)c1cccc(Cl)c1Cl [Example 47] | 1 to 10 | 10 to 50 | – | 1000 to 10000 | –
4 | COCCN(C)S(=O)(=O)c1cn(-c2nc3c(Nc4c(F)ccc(NS(=O)(=O)c5cccc(Cl)c5Cl)c4F)ncnc3s2)c2ccccc12 [Example 48] | 1 to 10 | 10 to 50 | 500 to 1000 | – | 0
5 | O=S(=O)(Nc1ccc(F)c(Nc2ncnc3sc(-n4cnc5c(F)c(F)ccc54)nc23)c1F)c1cccc(Cl)c1Cl [Example 49] | 1 to 10 | < 10 | – | 500 to 1000 | –
6 | N#CC1CN(C(=O)c2cn(-c3nc4c(Nc5c(F)ccc(NS(=O)(=O)c6cccc(Cl)c6Cl)c5F)ncnc4s3)c3ccccc23)C1 [Example 54] | 1 to 10 | < 10 | < 500 | – | −6
7 | CN1CC2CCC(C1)N2C(=O)c1cn(-c2nc3c(Nc4c(F)ccc(NS(=O)(=O)c5cccc(Cl)c5Cl)c4F)ncnc3s2)c2ccccc12 [Example 56] | < 1 | < 10 | < 500 | – | 0
8 | O=C(c1cn(-c2nc3c(Nc4c(F)ccc(NS(=O)(=O)c5cccc(Cl)c5Cl)c4F)ncnc3s2)c2ccccc12)N1CC(C(F)F)C1 [Example 57] | 1 to 10 | 10 to 50 | < 500 | – | 4
9 | O=C(c1cn(-c2nc3c(Nc4c(F)ccc(NS(=O)(=O)c5cccc(Cl)c5Cl)c4F)ncnc3s2)c2ccccc12)N1CC2(CCOCC2)C1 [Example 58] | 1 to 10 | < 10 | < 500 | – | −12
10 | O=C(c1cn(-c2nc3c(Nc4c(F)ccc(NS(=O)(=O)c5cccc(Cl)c5Cl)c4F)ncnc3s2)c2ccccc12)N1CC(O)C1 [Example 59] | < 1 | < 10 | 500 to 1000 | – | 4

The next lines start with results.

Row | IC50 (BRAF) [nM] | IC50 (CRAF) [nM] | IC50 (pERK, HCT116 cells) [nM] | IC50 (pERK, HCT116 cells; Homo sapiens, HCT-116) [nM] | SMILES | HCT116 pERK (Ymin %) (pERK, HCT116 cells) [%]
11 | < 1 | < 10 | < 500 | – | Cc1c(F)cccc1S(=O)(=O)Nc1ccc(F)c(Nc2ncnc3sc(-n4nc(C(=O)N(C)CCN(C)C)c5ccccc54)nc23)c1F [Example 39] | −12
12 | < 1 | < 10 | < 500 | – | Cc1c(F)cccc1S(=O)(=O)Nc1ccc(F)c(Nc2ncnc3sc(-n4cc(C(=O)N5C6CCC5COC6)c5ccccc54)nc23)c1F [Example 40] | −7
13 | < 1 | < 10 | < 500 | – | CN(C)CCN(C)S(=O)(=O)c1cn(-c2nc3c(Nc4c(F)ccc(NS(=O)(=O)c5cccc(Cl)c5Cl)c4F)ncnc3s2)c2ccccc12 [Example 41] | 0
14 | < 1 | < 10 | < 500 | – | COCCN(C)C(=O)c1cn(-c2nc3c(Nc4c(F)ccc(NS(=O)(=O)c5cccc(F)c5C)c4F)ncnc3s2)c2ccccc12 [Example 43] | 9
15 | < 1 | < 10 | < 500 | – | CN(Cc1ccncc1)C(=O)c1cn(-c2nc3c(Nc4c(F)ccc(NS(=O)(=O)c5cccc(Cl)c5Cl)c4F)ncnc3s2)c2ccccc12 [Example 45] | −4
16 | < 1 | < 10 | < 500 | – | CN(CCc1ccccn1)C(=O)c1cn(-c2nc3c(Nc4c(F)ccc(NS(=O)(=O)c5cccc(Cl)c5Cl)c4F)ncnc3s2)c2ccccc12 [Example 50] | 1
17 | < 1 | < 10 | < 500 | – | O=C(c1cn(-c2nc3c(Nc4c(F)ccc(NS(=O)(=O)c5cccc(Cl)c5Cl)c4F)ncnc3s2)c2ccccc12)N1C2CCC1COC2 [Example 51] | −1
18 | < 1 | < 10 | 500 to 1000 | – | O=C(c1cn(-c2nc3c(Nc4c(F)ccc(NS(=O)(=O)c5cccc(Cl)c5Cl)c4F)ncnc3s2)c2ccccc12)N1CCC(CO)C1 (stereo not drawn) [Example 52] | −9
19 | < 1 | < 10 | 500 to 1000 | – | O=C(c1cn(-c2nc3c(Nc4c(F)ccc(NS(=O)(=O)c5cccc(Cl)c5Cl)c4F)ncnc3s2)c2ccccc12)N1CCC(O)C1 (stereo not drawn) [Example 53] | −9
20 | < 1 | < 10 | 500 to 1000 | – | O=C(c1cn(-c2nc3c(Nc4c(F)ccc(NS(=O)(=O)c5cccc(Cl)c5Cl)c4F)ncnc3s2)c2ccccc12)N1CCCC(O)C1 (stereo not drawn) [Example 55] | −3
